# Laboratory results: patent US9469644B2, “Inhibitors of Bruton's tyrosine kinase” (Hoffmann-La Roche Inc., priority 2013, dated 2016)
# Molecular target: Bruton's Tyrosine Kinase (BTK), inactivated state (Homo sapiens (Human), UniProt Q06187)
# Experiment: BTK inhibition TR-FRET competition assay
# Format: binding
# Conditions: TR-FRET competition with Kinase Tracer 178, 18-24 h at 14° C.
# Method: This BTK competition assay measures compound potency (IC50) for the inactivated state of Bruton's Tyrosine Kinase using FRET (Förster/Flouresence Resonance Energy Transfer) technology. The BTK-Eu complex was incubated on ice one hour prior to use at a starting concentration of 50 nM BTK-BioeaseTM: 10 nM Eu-streptavidin (Perkin-Elmer Catalog# AD0062). The assay buffer consisted of 20 mM HEPES (pH 7.15), 0.1 mM DTT, 10 mM MgCl2, 0.5 mg/ml BSA with 3% Kinase Stabilizer (Fremont Biosolutions, Catalog #STB-K02). After 1 h, the reaction mixture from above was diluted 10 fold in assay buffer to make 5 nM BTK: 1 nM Eu-Streptavidin complex (donor fluorophore). 18 μl of a mixture of 0.11 nM BTK-Eu and 0.11 nM Kinase Tracer 178 (Invitrogen, Catalog #PV5593,) with BTK-Eu alone as no negative control, was then dispensed into 384-well flat bottom plates (Greiner, 784076). Compounds to be tested in assay were prepared as 10× concentrations and serial dilution in half-log increments was performed in DMSO so as to generate 10 point curves. To initiate the FRET reaction, compounds prepared as 10× stock in DMSO was added to the plates and the plates were incubated 18-24 h at 14° C. After the incubation the plates were read on a BMG Pherastar Fluorescent plate reader (or equivalent) and used to measure the emission energy from the europium donor fluorophore (620 nm emission) and the FRET (665 nm emission). The negative control well values were averaged to obtain the mean minimum. The positive “no inhibitor” control wells were averaged to obtain the mean maximum. […] The mean IC50 and standard deviation will be derived from duplicate curves (singlet inhibition curves from two independent dilutions) using Microsoft Excel.
# Bruton's Tyrosine Kinase (BTK), inactivated state, sequence (Q06187 whole entry): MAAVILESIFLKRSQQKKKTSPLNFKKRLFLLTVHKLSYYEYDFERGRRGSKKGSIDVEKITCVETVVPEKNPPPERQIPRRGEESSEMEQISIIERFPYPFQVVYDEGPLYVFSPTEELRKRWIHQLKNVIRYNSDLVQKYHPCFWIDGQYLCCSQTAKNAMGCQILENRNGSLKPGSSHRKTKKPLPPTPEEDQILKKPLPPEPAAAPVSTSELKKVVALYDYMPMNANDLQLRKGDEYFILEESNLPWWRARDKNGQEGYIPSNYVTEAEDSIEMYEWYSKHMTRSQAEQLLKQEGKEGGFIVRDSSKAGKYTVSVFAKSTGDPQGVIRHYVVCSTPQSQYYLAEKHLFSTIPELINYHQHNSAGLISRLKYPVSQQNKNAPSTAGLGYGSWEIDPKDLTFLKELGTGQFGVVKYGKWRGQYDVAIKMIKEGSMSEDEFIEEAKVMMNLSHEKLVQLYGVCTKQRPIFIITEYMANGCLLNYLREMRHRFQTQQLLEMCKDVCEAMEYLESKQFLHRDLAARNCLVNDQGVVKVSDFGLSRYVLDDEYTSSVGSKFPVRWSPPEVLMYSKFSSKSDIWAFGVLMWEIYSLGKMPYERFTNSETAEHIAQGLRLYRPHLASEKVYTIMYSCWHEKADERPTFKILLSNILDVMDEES
row,Compound,IC50 [µM]
1,"CC(C)(C)c1ccc(C(=O)NC2CCCC(Nc3ncnc4[nH]cnc34)C2)cc1 (stereo not shown) [Compound 1, 4-tert-Butyl-N-[3-(7H-purin-6-ylamino)-cyclohexyl]-benzamide]",9.57
2,"O=C(NCc1cccc(Cl)c1)C1CCCC(Nc2ncnc3[nH]cnc23)C1 (stereo not shown) [Compound 2, 3-(9H-Purin-6-ylamino)-cyclohexanecarboxylic acid 3-chloro-benzylamide]",100
3,"Cn1cc(Nc2nc(NC3CCCCC3)c3nc[nH]c3n2)cn1 [Compound 3, N*6*-Cyclohexyl-N*2*-(1-methyl-1H-pyrazol-4-yl)-9H-purine-2,6-diamine]",2.82
4,"CC1CCCC(Nc2nc(Nc3cnn(C)c3)nc3[nH]cnc23)C1 (stereo not shown) [Compound 4, N*6*-(3-Methyl-cyclohexyl)-N*2*-(1-methyl-1H-pyrazol-4-yl)-9H-purine-2,6-diamine]",40.6
5,"Cn1cc(Nc2nc(NC3CCCC(NC(=O)c4ccc(C(C)(C)C)cc4)C3)c3nc[nH]c3n2)cn1 (stereo not shown) [Compound 5, 4-tert-butyl-N-{3-[2-(1-methyl-1H-pyrazol-4-ylamino)-9H-purin-6-ylamino]-cyclohexyl}-benzamide]",0.0569
6,O=C(NC1CCCC(Nc2ncnc3[nH]cnc23)C1)c1ccccc1 (stereo not shown) [Compound 6],0.0453
7,CC(C)(C)OC(=O)NC1CCCC(C(=O)O)C1 (stereo not shown) [Compound 7],0.109
